Laboratory results published in patent publication US20230057930A1, “COMPOSITIONS FOR ALLEVIATING THE SYMPTOMS OF LOW ANTERIOR RESECTION SYNDROME BY TOPICAL ADMINISTRATION TO THE NEORECTUM” (RepoCeuticals A/S, priority 2020, published 2023).

What was measured:
patients with LARS = details: cited from earlier work
rats = details: rat, cited from earlier work
human subjects = details: cited from earlier work
[1] = cited from earlier work
[2] = Storage stability of melatonin in aqueous solution / formulation; format: physicochemical; details: shelf life
Method: Dimethyl sulfoxide (DMSO): DMSO ((CH3)2SO), molecular weight 78.1 g/mol, is a colorless polar aprotic solvent for both polar and nonpolar compounds and is completely miscible with water and a wide range of organic solvents. It is well known as a solvent or solubilizer for melatonin, as are also ethanol, glycerin and propylene glycol. […] On the other hand, the solubility of melatonin in water is limited to approximately 2 g/L at 20° C. […] DMSO penetrates the skin and other epithelia without damaging them and can carry other compounds dissolved in it into the underlying cells and tissues. DMSO has been used in human subjects as a topical analgesic, a vehicle for the topical application of pharmaceuticals e.g. as a component of a transdermal drug delivery systems, as an anti-inflammatory agent, and as an antioxidant. It is also used as a cryopreservative for sperm and oocytes in fertility treatments as well as for stem cells and modified lymphocytes for cellular therapies for cancer. […] While DMSO has been examined for the treatment of numerous conditions and ailments, its only use approved by the U.S. Food and Drug Administration (FDA) has been for the symptomatic treatment of interstitial cystitis, in which 50% (w/w) aqueous DMSO is instilled into the urinary bladder. […]

Cn1cc(C(=O)[C@@H]2CCc3nc[nH]c3C2)c2ccccc21 [ramosetron]
effect on symptoms of LARS (patients with LARS): alleviated the symptoms of urgency and reduced the number of bowel movements per day

COc1ccc2[nH]cc(CCNC(C)=O)c2c1 [Melatonin, N-acetyl-5-methoxytryptamine]
50% lethal oral dose (LD50 oral) (rats; in vivo, po): > 3200 mg/kg | adverse effects in human subjects (human subjects; gram amounts oral per day for prolonged periods): without apparent adverse effects | solubility in water ([1]; 20° C.): approximately 2 g/L | solubility in DMSO ([1]; room temperature (20 or 25° C.)): ≥ 232 mg/mL

glycofurol
effect on decomposition of melatonin in aqueous solutions [2]: reduces the decomposition of melatonin

C[S+](C)[O-] [DMSO, Dimethyl sulfoxide]
median 50% lethal oral dose (LD50 oral) relative to ethanol (rats; oral): twice as high as that of ethanol | adverse effects in patients (human subjects; intravenously, doses up to 1 g/kg/day): without evidence of adverse effects | effect on decomposition of melatonin in aqueous solutions [2]: prevents the decomposition of melatonin
